In one experiment the target is T1, ∆N∆C-IDFP LCAT (Homo sapiens, UniProt P04180).
T1 construct: ∆N∆C-LCAT (residues 21–397), a truncation variant that lacks the dynamic N- and C-termini; made in house; host or cells: HEK293F
T1 sequence (P04180 45-421): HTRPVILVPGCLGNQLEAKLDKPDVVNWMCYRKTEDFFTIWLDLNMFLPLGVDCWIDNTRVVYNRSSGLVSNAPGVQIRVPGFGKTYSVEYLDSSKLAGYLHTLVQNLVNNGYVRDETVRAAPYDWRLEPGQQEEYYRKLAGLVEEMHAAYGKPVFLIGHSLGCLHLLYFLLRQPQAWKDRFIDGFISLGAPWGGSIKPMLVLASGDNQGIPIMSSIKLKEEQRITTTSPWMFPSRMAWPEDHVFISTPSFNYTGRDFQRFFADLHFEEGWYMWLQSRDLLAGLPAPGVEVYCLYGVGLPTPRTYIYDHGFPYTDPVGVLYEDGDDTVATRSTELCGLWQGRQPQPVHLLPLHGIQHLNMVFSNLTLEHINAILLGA
The experiment is described as follows: Differential scanning fluorimetry. It is filed as binding. How it is done: (§1) Tm values were determined using an Applied Biosystems QuantStudio 7 Flex qPCR machine with two replicates performed at least in triplicate. LCAT at 0.05 mg mL^−1 was diluted into reaction buffer containing 5X Sypro Orange in a final volume of 10 μL in 384-well PCR plates. DMSO or compound 1 was added so that all reactions contained 3% DMSO. The reactions were run from 25–95 °C with a ramp rate of 0.03 °C s^−1. Tm values were determined as the derivative using Protein Thermal Shift software. Significance was determined using a one-way analysis of variance followed by Tukey’s multiple comparisons post-test in GraphPad Prism.
For orientation: In DSF a fluorescence change marks the thermal transition of the protein.

The target in the next experiment is T2, ∆N∆C-LCAT (Homo sapiens, UniProt P04180).
T2 construct: ∆N∆C-LCAT (residues 21–397), a truncation variant that lacks the dynamic N- and C-termini; made in house; host or cells: HEK293F
T2 sequence (P04180 45-421): T1 sequence (P04180 45-421)
The experiment can be described thus: Differential scanning fluorimetry. It is filed as binding. The settings on record: for Thermal stabilization (DSF): ∆N∆C LCAT. How it is done:
as §1

In a further experiment the target is T3, WT LCAT (Homo sapiens, UniProt P04180).
T3 sequence (P04180 25-440): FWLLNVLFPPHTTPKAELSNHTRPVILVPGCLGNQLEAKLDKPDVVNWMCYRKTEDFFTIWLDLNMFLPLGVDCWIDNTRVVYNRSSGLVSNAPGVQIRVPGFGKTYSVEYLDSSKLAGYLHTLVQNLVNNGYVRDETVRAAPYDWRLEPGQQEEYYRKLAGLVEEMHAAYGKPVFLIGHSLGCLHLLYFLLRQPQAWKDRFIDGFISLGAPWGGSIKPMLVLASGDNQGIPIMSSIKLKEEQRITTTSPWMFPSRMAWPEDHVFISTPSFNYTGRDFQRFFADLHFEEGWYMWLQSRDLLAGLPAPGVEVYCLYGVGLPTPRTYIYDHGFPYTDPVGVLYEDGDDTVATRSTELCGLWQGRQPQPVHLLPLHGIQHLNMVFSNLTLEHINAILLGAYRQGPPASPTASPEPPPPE
The experiment is described as follows: MST binding assay. Set-up: hydrolysis of 4-methylumbelliferyl palmitate (MUP) by full-length LCAT; made in house; host or cells: HEK293F (transient transfection, secreted). How it is done:
MST was used to determine the binding affinity of the compounds to LCAT. Recombinant proteins were labeled with a fluorophore using the Monolith His-tag labeling RED-Tris-NTA 2nd Generation kit following manufacturer’s protocol. Compounds were titrated in a two-fold dilution series starting at 20 μM and incubated with the same volume of 100 nM labeled recombinant protein for 5 min at room temperature. Measurements were carried out in PBS containing 0.05% Tween-20 and standard capillaries using a Monolith NT.115 instrument (Nanotemper Technologies) with 50% LED excitation power, 60% MST power, MST on-time of 30 s and off-time of 5 s. Kd values were calculated by fitting the thermophoresis signal at 20 s of the thermograph using MO.AffinityAnalysis software.

Molecules are shown by their SMILES. “Also recorded” adds a separate entry of the source.

Usually Kd stands for a measure of binding affinity in units of concentration. Consider `N#Cc1cnc(N2CCC(c3n[nH]c4c3C(O)(C(F)(F)F)CC(=O)N4)CC2)cc1C(F)(F)F` (stereo not shown) [compound 1, 6-(4-(4-Hydroxy-6-oxo-4-(trifluoromethyl)−4,5,6,7-tetrahydro-1H-pyrazolo[3,4-b]pyridin-3-yl)piperidin-1-yl)−4-(trifluoromethyl)nicotinonitrile], for which the “Thermal stabilization (DSF)” value at ∆N∆C-IDFP LCAT and at ∆N∆C-LCAT was “stabilize” each time. For the same compound, the “∆Tm of ∆N∆C-LCAT” value at ∆N∆C-LCAT (compound 1 and IDFP combined, additive effect) is 12.7 ˚C. In addition, the “Binding to WT LCAT by MST” value on WT LCAT is listed as “does”. The Kd at WT LCAT (read-out: Kd, binding to LCAT via microscale thermophoresis) was 100 ± 14 nM.

Take `O=C1CC(O)(C(F)(F)F)c2c(C3CCN(c4cnc(C(F)(F)F)cn4)CC3)n[nH]c2N1` (stereo not shown) [compound 2, 4-Hydroxy-4-(trifluoromethyl)−3-(1-(5-(trifluoromethyl)pyrazin-2-yl)piperidin-4-yl)−4,5-dihydro-1H-pyrazolo[3,4-b]pyridin-6(7H)-one]: the “Thermal stabilization (DSF)” value at ∆N∆C-IDFP LCAT and at ∆N∆C-LCAT was “stabilize” in each case.

Consider `O=C1CC(O)(C(F)(F)F)c2c(ncn2C2CCN(c3cnc(C(F)(F)F)cn3)CC2)N1` (stereo not shown) [compound 3, 7-Hydroxy-7-(trifluoromethyl)−1-(1-(5-(trifluoromethyl)pyrazin-2-yl)piperidin-4-yl)−6,7-dihydro-1H-imidazo[4,5-b]pyridin-5(4H)-one], for which the “Thermal stabilization (DSF)” value at ∆N∆C-IDFP LCAT and at ∆N∆C-LCAT was “stabilize” in each case.

For the compound `O=C1CC(O)(C(F)(F)F)c2c(ncn2C2CCNCC2)N1` (stereo not shown) [compound 6, 7-Hydroxy-1-(piperidin-4-yl)−7-(trifluoromethyl)−6,7-dihydro-1H-imidazo[4,5-b]pyridin-5(4H)-one], the “Binding to WT LCAT by MST” value at WT LCAT is reported as “does not bind; also recorded: unable to bind”.

(Values after publication PMC6277198, “Molecular basis for activation of lecithin:cholesterol acyltransferase by a compound that increases HDL cholesterol” (eLife, 2018).)
